Tests used:
[1] = system: A549 cells (human lung carcinoma cell line); test: A549 cell proliferation MTT assay; format: cell-based; settings: 120 h, 5 days incubation, MTT readout at 550 nm
Method: A549 cells (human lung carcinoma cell line) were cultivated in RPMI 1640, 2.5% FCS, 2 mM glutamine, 100 u/ml Penicillin, 100 μg/ml Streptomycin. For the assay the cells were seeded in 384 well plates, 900 cells per well, in the same medium. The next day compounds (dissolved 10 mM in DMSO) were added in various concentrations ranging from 3 μM to 0.15 nM (10 concentrations, 1:3 diluted). After 5 days the MTT assay was done mainly according to the instructions of the manufacturer (Cell proliferation kit I, MTT, from Roche Molecular Biochemicals). In brief, MTT labeling reagent was added to a final concentration of 0.5 mg/ml, added and incubated for 4 hrs at 37 C, 5% CO2. During this incubation time purple formazan crystals are formed. After addition of the solubilization solution (20% SDS in 0.02 M HCl) the plates were incubated overnight at 37° C., 5% CO2.
After careful mixing the plates were measured in Victor 2 (scanning multiwell spectrophotometer, Wallac) at 550 nm.
A decrease in number of living cells results in a decrease in the total metabolic activity in the sample. The decrease directly correlates to the amount of purple color resulting from the solubilization of the purple formazan crystals.
A549: 900 cells in 60 μl per well of 384 well plate (Greiner) • Medium: RPMI 1640, 2.5% FCS, glutamine, pen/strep. • Incubate 1 day at 37° C.
Induction: • Dilution of compound in DMSO: 3 μl 10 mM+27 μl DMSO, dilute 1:3 • Add 2 μl of compound dilution row to 95 μl of medium • Add 10 μl of compound dilution to 60 μl medium in test plate ? 0.3% DMSO per well • Incubate 120 h (5 days) at 37° C., 5% CO2
Analysis: • Add 7 μl MTT (5 mg/ml/well), incubate 4 h at 37° C. • Add 30 μl lysis buffer (20% SDS, 0.04 N HCl) per well • Incubate overnight at 37° C.
Measurement: • Victor 2; 550 nm • Determination of IC50 was done using XL-fit.

Row | SMILES | melting point | IC50 [1]
1 | COc1ccc(/C=C/c2nc(COc3ccc(-c4nc(Cn5ccnn5)co4)cc3)co2)cc1 [Example 1, 1-[2-(4-{2-[(E)-2-(4-Methoxy-phenyl)-vinyl]-oxazol-4-ylmethoxy}-phenyl)-oxazol-4-ylmethyl]-1H-[1,2,3]triazole] | 178 °C | 
2 | FC(F)(F)Sc1ccc(/C=C/c2nc(COc3ccc(-c4nc(Cn5ccnn5)co4)cc3)co2)cc1 [Example 3, 1-[2-(4-{2-[(E)-2-(−4-Trifluoromethylsulfanyl-phenyl)-vinyl]-oxazol-4-ylmethoxy}-phenyl)-oxazol-4-ylmethyl]-1H-[1,2,3]triazole] | 172 to 173 °C | 46 nM
3 | Clc1ccc(/C=C/c2nc(COc3ccc(-c4nc(Cn5ccnn5)co4)cc3)co2)cc1 [Example 5, 1-[2-(4-{2-[(E)-2-(4-Chloro-phenyl)-vinyl]-oxazol-4-ylmethoxy}-phenyl)-oxazol-4-ylmethyl]-1H-[1,2,3]triazole] | 208 to 210 °C | 69 nM
4 | Fc1cc(C(F)(F)F)ccc1/C=C/c1nc(COc2ccc(-c3nc(Cn4ccnn4)co3)cc2)co1 [Example 6, 1-[2-(4-{2-[(E)-2-(2-Fluoro-4-trifluoromethyl-phenyl)-vinyl]-oxazol-4-ylmethoxy}-phenyl)-oxazol-4-ylmethyl]-1H-[1,2,3]triazole] | 152 to 154 °C | 7 nM
5 | Fc1cc(Cl)ccc1/C=C/c1nc(COc2ccc(-c3nc(Cn4ccnn4)co3)cc2)co1 [Example 9, 1-[2-(4-{2-[(E)-2-(4-Chloro-2-fluoro-phenyl)-vinyl]-oxazol-4-ylmethoxy}-phenyl)oxazole-4-ylmethyl]-1H-[1,2,3]triazole] | 193 to 194 °C | 11 nM
6 | FC(F)(F)c1ccc(/C=C/c2nc(COc3ccc(-c4nc(Cn5ccnn5)co4)cc3)cs2)cc1 [Example 10, 1-[2-(4-{2-[(E)-2-(4-Trifluoromethyl-phenyl)-vinyl]-thiazol-4-ylmethoxy}-phenyl) -oxazol-4-ylmethyl]-1H-[1,2,3]triazole] | 179 to 181 °C | 60 nM
7 | FC(F)(F)c1ccc(/C=C/c2nc(COc3ccc(-c4nc(Cn5ccnn5)cs4)cc3)cs2)cc1 [Example 11, 1-[2-(4-{2-[(E)-2-(4-Trifluoromethyl-phenyl)-vinyl]-thiazol-4-ylmethoxy}-phenyl) -thiazole-4-ylmethyl]-1H-[1,2,3]triazole] | 146 to 148 °C | 
8 | Fc1cc(C(F)(F)F)ccc1/C=C/c1nc(COc2ccc(-c3nc(Cn4ccnc4)co3)cc2)co1 [Example 13, 2-[(E)-2-(2-Fluoro-4-trifluoromethyl-phenyl)-vinyl]-4-[4-(4-imidazol-1-ylmethyl-oxazol-2-yl)-phenoxymethyl]-oxazole] | 150 to 153 °C | 
9 | Fc1cc(Cl)ccc1/C=C/c1nc(COc2ccc(-c3nc(Cn4ccnc4)co3)cc2)co1 [Example 14, 2-[(E)-2-(2-Fluoro-4-chloro-phenyl)-vinyl]-4-[4-(4-imidazol-1-ylmethyl-oxazol-2-yl)phenoxymethyl]-oxazole] | 166 to 167 °C | 
10 | [O-][S+](c1ccc(/C=C/c2nc(COc3ccc(-c4nc(Cn5ccnn5)co4)cc3)co2)cc1)C(F)(F)F (stereo not shown) [Example 15, 1-[2-(4-{2-[(E)-2-(−4-Trifluoromethylsulfinyl-phenyl)-vinyl]-oxazol-4-ylmethoxy}-phenyl)-oxazol-4-ylmethyl]-1H-[1,2,3]triazole] | 167 to 169 °C | 
11 | FC(F)(F)Sc1ccc(/C=C/c2nc(COc3ccc(-c4nc(Cn5ccnc5)co4)cc3)co2)cc1 [Example 16, 1-[2-(4-{2-[(E)-2-(−4-Trifluoromethylsulfanyl-phenyl)-vinyl]-oxazol-4-ylmethoxy}-phenyl)-oxazol-4-ylmethyl]-1H-imidazole] | 144 to 145 °C | 
12 | [O-][S+](c1ccc(/C=C/c2nc(COc3ccc(-c4nc(Cn5ccnc5)co4)cc3)co2)cc1)C(F)(F)F (stereo not shown) [Example 17, 1-[2-(4-{2-[(E)-2-(−4-Trifluoromethylsulfinyl-phenyl)-vinyl]-oxazol-4-ylmethoxy}-phenyl)-oxazol-4-ylmethyl]-1H-imidazole] | 134 to 136 °C | 
13 | FS(F)(F)(F)(F)c1ccc(/C=C/c2nc(COc3ccc(-c4nc(Cn5ccnn5)co4)cc3)co2)cc1 [Example 19, 1-[2-(4-{2-[(E)-2-(4-Pentafluorosulfanyl-phenyl)-vinyl]-oxazol-4-ylmethoxy}-phenyl) -oxazol-4-ylmethyl]-1H-[1,2,3]triazole] | 172 to 174 °C | 

Second part, the compound after the results:

Row | melting point | IC50 [1] | SMILES
14 | 166 to 172 °C | 46 nM | FC(F)(F)Oc1ccc(/C=C/c2nc(COc3ccc(-c4nc(Cn5ccnn5)co4)cc3)co2)cc1 [Example 2, 1-[2-(4-{2-[(E)-2-(4-Trifluoromethoxy-phenyl)-vinyl]-oxazol-4-ylmethoxy}-phenyl) -oxazol-4-ylmethyl]-1H-[1,2,3]triazole]
15 | 170 °C | 45 nM | FC(F)(F)c1ccc(/C=C/c2nc(COc3ccc(-c4nc(Cn5ccnn5)co4)cc3)co2)cc1 [Example 4, 1-[2-(4-{2-[(E)-2-(4-Trifluoromethyl-phenyl)-vinyl]-oxazol-4-ylmethoxy}-phenyl) -oxazol-4-ylmethyl]-1H-[1,2,3]triazole]
16 | 163 to 165 °C | 37 nM | FC(F)(F)c1ccc(/C=C/c2nc(COc3ccc(-c4nc(Cn5ccnn5)cs4)cc3)co2)cc1 [Example 7, 1-[2-(4-{2-[(E)-2-(4-Trifluoromethyl-phenyl)-vinyl]-oxazol-4-ylmethoxy}-phenyl) -thiazol-4-ylmethyl]-1H-[1,2,3]triazole]
17 | 180 to 182 °C | 70 nM | Fc1cc(C(F)(F)F)ccc1/C=C/c1nc(COc2ccc(-c3nc(Cn4ccnn4)cs3)cc2)co1 [Example 8, 1-[2-(4-{2-[(E)-2-(2-Fluoro-4-trifluoromethyl-phenyl)-vinyl]-oxazol-4-ylmethoxy}-phenyl)-thiazol-4-ylmethyl]-1H-[1,2,3]triazole]
18 | 133 to 135 °C |  | Fc1cc(C(F)(F)F)ccc1/C=C/c1nc(COc2ccc(-c3nc(Cn4ccnc4)cs3)cc2)co1 [Example 12, 2-[(E)-2-(2-Fluoro-4-trifluoromethyl-phenyl)-vinyl]-4-[4-(4-imidazol-1-ylmethyl-thiazole-2-yl)-phenoxymethyl]-oxazole]
19 | 170 to 172 °C |  | OCCc1nccn1Cc1coc(-c2ccc(OCc3coc(/C=C/c4ccc(Cl)cc4F)n3)cc2)n1 [Example 18, 2-{1-[2-(4-{2-[(E)-2-(4-Chloro-2-fluoro-phenyl)-vinyl]-oxazol-4-ylmethoxy}-phenyl)-oxazole-4-ylmethyl]-1H-imidazol-2-yl}-ethanol]
